The values below come from BindingDB's records for doi:10.1021/acs.jmedchem.7b01525 (University of Montreal, 2017).

Assay [1] addresses T1, Urotensin-2 receptor (Rattus norvegicus, UniProt P49684).
T1 sequence (P49684 whole entry): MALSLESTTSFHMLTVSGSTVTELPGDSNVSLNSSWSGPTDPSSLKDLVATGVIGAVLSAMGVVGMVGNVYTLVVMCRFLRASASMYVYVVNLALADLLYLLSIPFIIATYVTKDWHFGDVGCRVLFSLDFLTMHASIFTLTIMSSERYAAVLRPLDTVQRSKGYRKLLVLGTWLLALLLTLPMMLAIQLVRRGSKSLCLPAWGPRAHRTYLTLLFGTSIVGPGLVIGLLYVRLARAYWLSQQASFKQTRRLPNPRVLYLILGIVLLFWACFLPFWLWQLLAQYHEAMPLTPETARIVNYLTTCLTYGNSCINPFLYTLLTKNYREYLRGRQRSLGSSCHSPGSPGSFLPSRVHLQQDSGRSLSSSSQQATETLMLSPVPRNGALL
The assay can be described thus: Allosteric modulation of urotensin-2 receptor in Sprague-Dawley rat thoracic aorta assessed as change in URP-mediated aortic ring contraction by measuring URP pEC50 at 10^-5M preincubated for 15 mins followed by URP addition (Rvb = 8.09 +/- 0.03 No_unit).

Assay [2] concerns the target T1, Urotensin-2 receptor. Nature of the assay: Allosteric modulation of urotensin-2 receptor in Sprague-Dawley rat thoracic aorta assessed as change in human urotensin-2-mediated aortic ring contraction by measuring urotensin-2 pEC50 at 10^-5M preincubated for 15 mins followed by urotensin-2 addition (Rvb = 8.61 +/- 0.05 No_unit).
In assay [3] the target is T2, Urotensin-2 receptor (Homo sapiens, UniProt Q9UKP6).
T2 sequence (Q9UKP6 whole entry): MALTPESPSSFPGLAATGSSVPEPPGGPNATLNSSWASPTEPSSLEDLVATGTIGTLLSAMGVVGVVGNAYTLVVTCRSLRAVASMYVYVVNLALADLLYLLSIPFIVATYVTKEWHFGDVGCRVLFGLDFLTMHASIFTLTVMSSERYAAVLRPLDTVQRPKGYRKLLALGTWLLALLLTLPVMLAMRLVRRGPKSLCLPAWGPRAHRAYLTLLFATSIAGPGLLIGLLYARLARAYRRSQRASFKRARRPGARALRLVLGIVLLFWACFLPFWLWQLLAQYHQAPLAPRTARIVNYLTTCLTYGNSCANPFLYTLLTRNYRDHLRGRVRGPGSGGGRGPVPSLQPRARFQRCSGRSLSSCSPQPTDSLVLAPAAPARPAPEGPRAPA
The assay can be described thus: Allosteric modulation of human urotensin-2 receptor expressed in HEK293 cells assessed as change in human urotensin-2-induced Gq activation by measuring urotensin-2 pEC50 at 10^-5 M preincubated for 30 mins followed by urotensin-2 addition by BRET assay (Rvb = 7.88 +/- 0.07 No_unit). (In general: In BRET a luciferase serves as donor, and the signal depends on an acceptor being close.)

The target in assay [4] is T2, Urotensin-2 receptor. The assay can be described thus: Allosteric modulation of human urotensin-2 receptor expressed in HEK293 cells assessed as change in human urotensin-2-induced G12 activation by measuring urotensin-2 pEC50 at 10^-5 M preincubated for 30 mins followed by urotensin-2 addition by BRET assay (Rvb = 6.31 +/- 0.17 No_unit).
Assay [5] deals with T2, Urotensin-2 receptor. Nature of the assay: Allosteric modulation of human urotensin-2 receptor expressed in HEK293 cells assessed as change in URP-induced G12 activation by measuring URP pEC50 at 10^-5 M preincubated for 30 mins followed by URP addition by BRET assay (Rvb = 6.75 +/- 0.19 No_unit).
Assay [6] has as its target T2, Urotensin-2 receptor. Nature of the assay: Allosteric modulation of human urotensin-2 receptor expressed in HEK293 cells assessed as change in URP-induced Gq activation by measuring URP pEC50 at 10^-5 M preincubated for 30 mins followed by URP addition by BRET assay (Rvb = 8.28 +/- 0.08 No_unit).
A short description of assay [7]: Allosteric modulation of urotensin-2 receptor in Sprague-Dawley rat thoracic aorta assessed as change in human urotensin-2-mediated aortic ring contraction by measuring urotensin-2 pEC50 at 1 uM preincubated for 15 mins followed by urotensin-2 addition (Rvb = 8.61 +/- 0.05 No_unit).
Assay [8] can be described thus: Allosteric modulation of urotensin-2 receptor in Sprague-Dawley rat thoracic aorta assessed as change in URP-mediated aortic ring contraction by measuring URP pEC50 at 1 uM preincubated for 15 mins followed by URP addition (Rvb = 8.09 +/- 0.03 No_unit).

In the case of `COc1ccc(C=CC2=NN(CCCCN)C(=O)N(Cc3ccc4ccccc4c3)c3ccccc32)cc1`, the EC50 (usually the concentration giving half of the maximal effect) on Urotensin-2 receptor [1] stood at 8.5 nM; at Urotensin-2 receptor [2], 3.6 nM.

As to `COc1ccc(C=CC2=NN(CCCCN)C(=O)N(Cc3ccc(-c4ccccc4)cc3)c3ccccc32)cc1`, the EC50 stood at 6.3 nM on Urotensin-2 receptor [1]; 8.5 nM on Urotensin-2 receptor [3]; 2240 nM at Urotensin-2 receptor [4]; 1740 nM on Urotensin-2 receptor [5]; 7.1 nM on Urotensin-2 receptor [6].

On to `NCCCCN1N=C(C=Cc2ccc(O)cc2)c2ccccc2N(Cc2ccc3ccccc3c2)C1=O`, for which, at Urotensin-2 receptor [2], the EC50 turned out to be 15 nM.

Consider `NCCCCN1N=C(C=Cc2ccc(O)cc2)c2ccccc2N(Cc2ccc(-c3ccccc3)cc2)C1=O`, for which the EC50 on Urotensin-2 receptor [1] stood at 9.3 nM; on Urotensin-2 receptor [3], 14 nM; at Urotensin-2 receptor [4], 2190 nM; on Urotensin-2 receptor [5], 117 nM; on Urotensin-2 receptor [6], 4.2 nM.

Take `COc1ccc(CCC2=NN(CCCN)C(=O)N(Cc3ccc(-c4ccccc4)cc3)c3ccccc32)cc1`: the EC50 at Urotensin-2 receptor [1] came out at 7.8 nM; on Urotensin-2 receptor [2], 3.2 nM.

As to `COc1ccc(CCC2=NN(CCCCN)C(=O)N(Cc3ccc4ccccc4c3)c3ccccc32)cc1`, the EC50 came to 4 nM on Urotensin-2 receptor [1] and 5 nM at Urotensin-2 receptor [2].

With `COc1ccc(CCC2=NN(CCCCN)C(=O)N(Cc3ccc(-c4ccccc4)cc3)c3ccccc32)cc1`, the EC50 came out at 5 nM at Urotensin-2 receptor [1] and 3.7 nM on Urotensin-2 receptor [2].

As for `NCCCN1N=C(CCc2ccc(O)cc2)c2ccccc2N(Cc2ccc3ccccc3c2)C1=O`, the EC50 was 10 nM on Urotensin-2 receptor [1] and 3.7 nM on Urotensin-2 receptor [2].

Consider `NCCCCN1N=C(CCc2ccc(O)cc2)c2ccccc2N(Cc2ccc3ccccc3c2)C1=O`, for which the EC50 stood at 10 nM on Urotensin-2 receptor [1]; 11 nM at Urotensin-2 receptor [3]; 1180 nM at Urotensin-2 receptor [4]; 4.4 nM at Urotensin-2 receptor [2]; 1100 nM on Urotensin-2 receptor [5]; 5 nM at Urotensin-2 receptor [6].

Consider `NCCCCN1N=C(CCc2ccc(O)cc2)c2ccccc2N(Cc2ccc(-c3ccccc3)cc2)C1=O`, for which the EC50 on Urotensin-2 receptor [1] was 20 nM; at Urotensin-2 receptor [2], 3.5 nM.

`NCCCN1N=C(CCc2nc3ccccc3s2)c2ccccc2N(Cc2ccc(-c3ccccc3)cc2)C1=O`: the EC50 on Urotensin-2 receptor [1] amounted to 3.7 nM; on Urotensin-2 receptor [2] it was 1.4 nM.

Take `NCCCCN1N=C(CCc2nc3ccccc3s2)c2ccccc2N(Cc2ccc(-c3ccccc3)cc2)C1=O`: the EC50 on Urotensin-2 receptor [1] stood at 3.7 nM; at Urotensin-2 receptor [2], 12 nM.

Take `CNCCCCN1N=C(CCc2nc3ccccc3s2)c2ccccc2N(Cc2ccc(-c3ccccc3)cc2)C1=O`: the EC50 was determined as 15 nM at Urotensin-2 receptor [1] and 6 nM on Urotensin-2 receptor [2].

Regarding `NCCCN1N=C(CCc2nc3ccccc3s2)c2ccccc2N(Cc2ccc3ccccc3c2)C1=O`, the EC50 at Urotensin-2 receptor [1] came to 4 nM; on Urotensin-2 receptor [3], 11 nM; at Urotensin-2 receptor [4], 3720 nM; on Urotensin-2 receptor [2] it was 3.3 nM; at Urotensin-2 receptor [5], 1950 nM; on Urotensin-2 receptor [6], 6.2 nM.

As to `CNCCCCN1N=C(CCc2nc3ccccc3s2)c2ccccc2N(Cc2ccc3ccccc3c2)C1=O`, the EC50 at Urotensin-2 receptor [1] and on Urotensin-2 receptor [2] was 4.3 nM each time.

`CNCCCCN1N=C(CCc2nc3ccccc3s2)c2ccccc2N(Cc2cccc3ccccc23)C1=O`: the EC50 on Urotensin-2 receptor [1] was found to be 6.6 nM; on Urotensin-2 receptor [2] it was 4.1 nM.

For the compound `NCCCCN1N=C(CCc2nc3ccccc3s2)c2ccccc2N(Cc2ccc3ccccc3c2)C1=O`, the EC50 came out at 3.5 nM at Urotensin-2 receptor [1] and 3 nM at Urotensin-2 receptor [2].

For `COc1ccc(CCC2=NN(CCCN)C(=O)N(Cc3ccc4ccccc4c3)c3ccccc32)cc1`, the EC50 at Urotensin-2 receptor [1] is 6.3 nM; at Urotensin-2 receptor [2], 4 nM.

For the compound `NCCCN1N=C(CCc2ccc(O)cc2)c2ccccc2N(Cc2ccc(-c3ccccc3)cc2)C1=O`, the EC50 was determined as 11 nM at Urotensin-2 receptor [1] and 4.5 nM at Urotensin-2 receptor [2].

Consider `CNCCCN1N=C(CCc2nc3ccccc3s2)c2ccccc2N(Cc2ccc(-c3ccccc3)cc2)C1=O`, for which the EC50 at Urotensin-2 receptor [1] amounted to 4.9 nM; on Urotensin-2 receptor [2], 4.1 nM.

Turning to `NCCCN1N=C(CCc2nc3ccccc3s2)c2ccccc2N(Cc2cccc3ccccc23)C1=O`, the EC50 on Urotensin-2 receptor [1] is 5.8 nM; on Urotensin-2 receptor [2] it was 4.8 nM.

As to `CC(C)[C@H](NC(=O)[C@@H]1CSSC[C@H](NC(=O)[C@H](C)N)C(=O)N[C@@H](Cc2ccccc2)C(=O)N[C@@H](Cc2ccc(-c3ccccc3)cc2)C(=O)N[C@@H](CCCCN)C(=O)N[C@@H](Cc2ccc(O)cc2)C(=O)N1)C(=O)O`, the 50% effective concentration (EC50) was 25 nM in assay [7] and 18 nM in assay [8].

As for `NCCCN1N=C(C=Cc2ccc(O)cc2)c2ccccc2N(Cc2ccc3ccccc3c2)C1=O`, the EC50 at Urotensin-2 receptor [1] was determined as 20 nM; at Urotensin-2 receptor [2], 12 nM.
